Measurements from paper PMC6112376, “Comprehensive Analyses and Prioritization of Tox21 10K Chemicals Affecting Mitochondrial Function by in-Depth Mechanistic Studies” (Environmental Health Perspectives, 2018).
Structures can show the parent of a compound that is named as a salt. Where two headings read alike, the source gives them in different places.

What was measured:
HepG2 cells [1] = conditions: cited from earlier work
HepG2 cells [2] = test: cells; conditions: Homo sapiens; for Emax: HepG2, read-out: MMP assays efficacy (%) HepG2
rat primary hepatocytes = test: MMP assay in rat primary hepatocytes; conditions: for MMP assays IC50 (µM) Rat Hepatocytes / MMP assays efficacy (%) Rat Hepatocytes: mean ± SD of three experiments; for IC50: Rattus norvegicus, Hepatocyte
[3] = read-out: MMP assays IC50 (µM) qHTS-HepG2
[4] = HepG2, read-out: MMP assays IC50 (µM) HepG2
[5] = read-out: MMP assays IC50 (µM), qHTS-HepG2
[6] = read-out: MMP assays IC50 (µM) Rat Hepatocytes

Structure (SMILES)	MMP assays efficacy (%) qHTS-HepG2 (HepG2 cells [1]) [%]	IC50 (HepG2 cells [1]; [3]) [µM]	IC50 (HepG2 cells [2]; [4]) [µM]	Emax (HepG2 cells [2]) [%]	MMP assays IC50 (µM) Rat Hepatocytes (rat primary hepatocytes)	MMP assays efficacy (%) Rat Hepatocytes (rat primary hepatocytes)	IC50 (HepG2 cells [1]; [5]) [µM]	IC50 (rat primary hepatocytes; [6]) [µM]	IC50 (HepG2 cells [2]; HepG2, read-out: IC50 in HepG2 cells (MMP, tier-one retest)) [µM]	IC50 (rat primary hepatocytes; 1 h, read-out: IC50 in rat primary hepatocytes (MMP, tier-one retest)) [µM]
Nc1ccc2c(O)cc(S(=O)(=O)O)cc2c1	-55±5	27.3 ± 3.73	39.8	40	inactive	inactive				
CSc1nc2cc(Cl)c(Oc3cccc(Cl)c3Cl)cc2[nH]1 [Triclabendazole]	-114±15		5.48	97		-91±10%	1.84 ± 0.15	15.6 ± 2.52		
CCCCCCCCCCCCCC[n+]1ccccc1 [Tetradecylpyridinium bromide]	-76±21		17.8	102		-99±17%	22.5 ± 4.1	33.5 ± 2.73		
COCCOC(=O)C1=C(C)NC(C)=C(C(=O)OC/C=C/c2ccccc2)C1c1cccc([N+](=O)[O-])c1 (stereo not shown) [Cilnidipine]	-104±6	12.5 ± 1.78	12.3	109		-75±17%		14.8 ± 8.07		
CNc1ncnc2nc[nH]c12 [(N-6)-Methyladenine]	-65±7	5.98 ± 5.84	6.31	56	inactive	inactive				
CC/C(=C(/CC)c1ccc(O)cc1)c1ccc(O)cc1 [Diethylstilbestrol]	-105±14			112				25.2 ± 21.7		
O=c1c(-c2ccccc2)c1-c1ccccc1 [Diphenylcyclopropenone]	-79±6	25.6 ± 1.67	27.5	79	inactive	inactive				
CCOC1O[C@H]([C@@H](COCc2ccccc2)OCc2ccccc2)[C@H](OCc2ccccc2)[C@H]1O (stereo partly shown) [Tribenoside]	-114±21		11.7	61	inactive	inactive	11.8 ± 0.8			
Cc1cc(O)c(C(C)(C)C)cc1Sc1cc(C(C)(C)C)c(O)cc1C [4,4'-Thiobis(6-tert-butyl-m-cresol)]	-104±19	1.86 ± 1.18	3.16	115		-78±17%		24.8 ± 11.8		
O=C1c2ccccc2C(=O)c2c(O)ccc(O)c21 [1,4-Dihydroxyanthracene-9,10-dione]	-103±19	5.24 ± 3.43	8.91	41		-25±3%		4.81 ± 8.07		
O=C(O)c1ccccc1Nc1cccc(C(F)(F)F)c1 [Flufenamic acid]	-129±20		17.3	108		-111±31%	36.6 ± 1.87	14.5 ± 4.99		
CCCOC(=O)c1cc(O)c(O)c(O)c1 [Propyl gallate]	-88±15		35.5	97	inactive	inactive	42.3 ± 3.93			
O=C1OC[C@H](Cc2cccc(O)c2)[C@H]1Cc1cccc(O)c1 [Enterolactone]	-79±21	9.99 ± 5.02	10.7	76	inactive	inactive				
Cc1cc(O)c(C(C)(C)C)cc1C(C)(C)C [4,6-Di-tert-butyl-m-cresol]		2.25 ± 1.49	2.51	96		-103±14%		45.9 ± 14.7		
Cc1cc(O)cc(C)c1Cl [4-Chloro-3,5-dimethylphenol]	-122±6	21	25.1	106	inactive	inactive				
O=C(Nc1cccc(C(F)(F)F)c1)c1cc(Br)cc(Br)c1O [fluorosalan]	-104±5			100		-74±9%	0.24 ± 0.09		0.19	0.42
Cc1ccc2c(Cl)cc(Cl)c(O)c2n1 [5,7-Dichloro-8-hydroxy-2-methylquinoline]	-120±20	11 ± 2	1.38	60	inactive	inactive				
C=C1CC[C@H](O)C/C1=C/C=C1\CCC[C@]2(C)[C@@H]([C@H](C)CCCC(C)(C)O)CC[C@@H]12 [Calcifediol]	-109±10	5.82 ± 0.47	12.3	115		-66±31%		14.2 ± 9.57		
CC(C)(C)c1cc(/C=C2\SC(N)=NC2=O)cc(C(C)(C)C)c1O [Darbufelone mesylate]	-110±13	11.7 ± 2.02	5.62	102		-105±22%		7.15 ± 5.41		
C=C1/C(=C\C=C2/CCC[C@]3(C)[C@@H]([C@H](C)/C=C/[C@@H](O)C4CC4)CC[C@@H]23)C[C@@H](O)C[C@@H]1O [Calcipotriene]	-63±12	26 ± 3.89	21.8	124		-63±23%		17.3		
O=C1c2ccccc2C(=O)C1(O)O [Ninhydrin]	-86±19		56.2	85	inactive	inactive	32 ± 9.69			
O=C(Nc1ncc([N+](=O)[O-])s1)c1cccs1 [Tenonitrozole]	-95±3		0.56	99			0.73 ± 0.12	0.68 ± 0.45		
CCC(C)(C)c1ccc(CC(C)CN2C[C@@H](C)O[C@@H](C)C2)cc1 (stereo partly shown) [Amorolfine]	-63±11	21.6 ± 3.47	17.3	82	inactive	inactive				
Clc1ccc(Sc2cc(Cl)c(Cl)cc2Cl)cc1 [Tetrasul]	-77±0		2.51	72	inactive	inactive	1.77 ± 0.25			
CC(C)OC(=O)C(C(=O)OC(C)C)=C1SC=CS1 [Malotilate]	-82±14		39.8	79		-106±108%	15 ± 1.99	23.9 ± 29.3		
O=C1OC(=O)c2cccc3cccc1c23 [1H,3H-Naphtho(1,8-cd)pyran-1,3-dione]	-51±8	3.89 ± 1.12	7.94	63	inactive	inactive				
